According to US20250313563A1, “GLYCOGEN SYNTHASE KINASE 3 INHIBITORS AND USES THEREOF” (The Broad Institute, Inc., priority 2022, published 2025):
Where two headings read alike, the source gives them in different places.

Columns and labels:
[1] = system: β-catenin nuclear translocation in SH-SY5Y cells; test: β-catenin translocation assay; assay type: cell-based
Procedure: SH-SY5Y cells were seeded into a 96-well CellCarrier Ultra (Perkin Elmer) plate at a density of 1×10^5 cells/ml in complete DMEM. Sixteen hours following plating, media was changed to DMEM with 2% serum, and compound was added with a D300e Digital Dispenser (Tecan) for an incubation time of six hours. After compound incubation, media was removed, and cells were fixed with 4% PFA for 10 minutes at room temperature. Each well was washed three times with PBS-T and then blocked with buffer (1×PBS with 5% Normal Goat Serum and 0.3% Triton X-100) for 30 minutes at room temperature. β-Catenin primary antibody (Cell Signaling #8480) was added at 1:500 dilution in blocking buffer and the cells were allowed to incubate in primary overnight at 4° C. The following day, primary antibody was removed, each well was washed three times with PBS-T, and secondary antibody (1:2000 anti-rabbit AlexaFluor Plus 488 and 1:10,000 Hoechst 33342) was added and allowed to incubate for 60 minutes at room temperature protected from light. After one-hour, secondary antibody was removed and wells were washed four times with PBS-T before imaging on the Opera Phenix. Sixteen fields per well were imaged with a 20× water lens.
Images were quantified in the Columbus Image Data Storage and Analysis software. Cells were identified using the Hoechst nuclear stain to identify individual nuclei. Intensity of the nuclear stain was also used to determine cell viability (Viable cells <30% CV of Hoechst Intensity)

human GSK3β = human GSK3β (Homo sapiens (Human), UniProt P49841); test: pThr231 tau phosphorylation plate-based assay in HEK-huTau cells transfected with GSK3β; assay type: cell-based; conditions: GSK3β IC50 undetermined due to toxicity
Chain of human GSK3β (P49841 whole entry): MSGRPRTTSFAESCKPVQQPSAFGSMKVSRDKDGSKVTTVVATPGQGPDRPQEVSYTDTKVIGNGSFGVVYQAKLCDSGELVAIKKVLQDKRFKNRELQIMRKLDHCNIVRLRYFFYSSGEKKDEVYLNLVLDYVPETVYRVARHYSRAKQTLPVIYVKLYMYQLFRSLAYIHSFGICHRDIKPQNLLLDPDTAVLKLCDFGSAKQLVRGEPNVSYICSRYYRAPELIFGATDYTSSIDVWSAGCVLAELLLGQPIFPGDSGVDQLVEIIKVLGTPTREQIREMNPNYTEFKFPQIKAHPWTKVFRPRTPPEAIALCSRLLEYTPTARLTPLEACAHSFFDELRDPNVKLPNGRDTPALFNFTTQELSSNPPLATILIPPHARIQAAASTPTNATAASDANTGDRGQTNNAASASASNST
Procedure: HEK293 or SH-SY5Y cells were obtained from American Type Culture Collection (ATCC, Manassas, VA) and cultured in Dulbecco's modified Eagle's medium (DMEM) supplemented with 10% fetal bovine serum (FBS), 10 units/ml penicillin, and 10 μg/ml streptomycin (all reagents were purchased from Gibco, Waltham, MA). Cell cultures were maintained in a humidified 5% (v/v) CO2/air environment at 37° C. When the cells reached 50-80% confluence, they were transfected with a complex consisting of a 3:1 ratio of FuGENE 6 Transfection Reagent (Promega, Madison, WI) and plasmid DNA. Plasmid DNA was balanced out across reactions using an empty plasmid so that the same amount of DNA was added per well. This transfection complex was prepared following the manufacturers protocol and added directly to the cell media for 24 or 48 hours prior to lysis.
293T cells stably expressing human 2N4R Tau were transfected with appropriate cDNA plasmids. 24 hours following transfection cells were treated with compound in a 10-point dose-response (from 1000× stocks of compound) and lysates harvested 2 hours later with cell extraction buffer (Life Technologies Cat #BN0001) or RIPA Buffer with Halt protease/phosphatase inhibitors added.
For pThr231 assay: Lysate was diluted 1:100 in assay buffer and Total Tau and pTau T231 was assessed by plate-based ELISA as per manufacturer instructions (MSD Cat #K15121D-1). Total fluorescence was measured using an Envison plate reader.
To test the potency and isoform selectivity of GSK3 small molecule inhibitors, HEK-huTau cells were transfected with plasmids containing either human GSK3α or GSK3β. Twenty-four hours after transfection, compounds were added at a 10-point dose response curve (at a range of 30 μM-3 nM) for a total of 2 hours, and cell lysates were probed for total tau and pThr231 using a plate-based assay.

[2] = target: GSK3b (GST-full length GSK3b) (Homo sapiens (Human), UniProt P49841); test: GSK3b TR-FRET kinase assay; assay type: biochemical; conditions: GMean, geometric mean
Chain of GSK3b (GST-full length GSK3b) (P49841 whole entry, canonical isoform): as the sequence (P49841 whole entry) above
How it was run: (§1)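 In this time-resolved FRET format, kinase reactions contained 200 nM biotinylated, S645-phosphorylated glycogen synthase 631-650 peptide and either isoform-specific ATP (2 μM GSK3b, 4 μM GSK3α) or 1 mM ATP. They were quenched with EDTA after 100 min at ambient temperature. Inhibition curves gave IC50 values.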

[3] = target: GSK3α (GST-full length GSK3α) (Homo sapiens (Human), UniProt P49840); test: GSK3α TR-FRET kinase assay; assay type: biochemical; conditions: GMean, geometric mean
Chain of GSK3α (GST-full length GSK3α) (P49840 whole entry): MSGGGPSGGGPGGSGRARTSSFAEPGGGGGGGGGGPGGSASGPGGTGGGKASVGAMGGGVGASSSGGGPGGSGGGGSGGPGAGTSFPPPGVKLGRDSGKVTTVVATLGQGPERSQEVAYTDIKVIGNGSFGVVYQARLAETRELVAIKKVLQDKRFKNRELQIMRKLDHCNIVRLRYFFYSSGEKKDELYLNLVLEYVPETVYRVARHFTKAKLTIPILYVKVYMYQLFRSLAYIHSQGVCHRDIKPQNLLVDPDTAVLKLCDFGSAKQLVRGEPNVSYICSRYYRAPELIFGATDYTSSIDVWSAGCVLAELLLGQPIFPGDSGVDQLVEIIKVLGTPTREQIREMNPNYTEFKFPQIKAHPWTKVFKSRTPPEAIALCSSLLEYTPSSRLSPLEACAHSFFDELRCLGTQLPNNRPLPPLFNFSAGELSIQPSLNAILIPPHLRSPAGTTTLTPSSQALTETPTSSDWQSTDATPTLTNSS
How it was run: as §1

[4] = Microsomal stability (MIC), mouse; assay type: in vitro ADME, mouse (CD-1); conditions: mouse liver microsomes; for half-life at 1 μM: CD-1, read-out: Microsome stability (mouse), in vitro T1/2
Procedure: (§2) Stability of compound in liver microsomes was tested in duplicate by incubating compound at 1 μM for 60 minutes at 37° C. Compound level at 60 minutes was compared to level at 0 minutes, and percent remaining was calculated. Assay Parameters
(§3) Available species: human and mouse (CD-1). Compound requirements: 5 μL of a 10 mM DMSO solution. Incubation time: 60 minutes at 37° C. Test Concentration: 1 μM.
(§4) Microsomes with NADPH without compound-matrix interference. Microsomes plus compound without NADPH—non-enzymatic instability.

[5] = Microsomal stability (MIC), human; assay type: in vitro ADME; conditions: human liver microsomes
Procedure: as §2, §3, §4

[6] = system: MDR1-MDCK cell monolayers; test: MDR1/MDCK assay (blood-brain barrier penetration potential); assay type: in vitro ADME; conditions: 5 μM, pH 7.4, 120 minutes; for MDCK permeability (MDR1-MDCK); Mean; Papp (A − B): A to B; for MDCK permeability (MDR1-MDCK); Mean; Papp (B − A): B to A
Procedure: The MDR1/MDCK assay is run at Absorption Systems. This assay is used to determine the blood-brain barrier (BBB) penetration potential of a test compound using MDR1-MDCK cell monolayers. Catalog number EA203.
• Test compound at 5 μM in HBSSg with maximum DMSO concentration not greater than 1%.
• Confluent monolayers of MDR1-MDCK cells, 7 to 11 days old.
• Receiver well with 1% BSA in modified Hanks buffer (HBSSg) • Apical and basolateral side at pH 7.4 • Dose two monolayers in each direction (N=2) • Dose apical side for (A to B) assessment • Dose basolateral side for (B to A) assessment • Sample both apical and basolateral sides at 120 minutes • Determine the concentrations of test compound using a generic LC-MS/MS method with a minimum 4 point calibration curve.
• The quality of the cell monolayer batch is verified using control compounds before monolayers are released for use • The quality of each monolayer used in the assay is verified by a TEER measurement and by calculating the Papp for a control compound.

[7] = GSK3-B (TR-FRET 1 mM ATP), IC50, 1 mM ATP
[8] = GSK3-A (TR-FRET 1 mM ATP), IC50, 1 mM ATP
[9] = read-out: GSK3-B (TR-FRET 1 mM ATP), IC50, 1 mM ATP
[10] = read-out: GSK3-A (TR-FRET 1 mM ATP), IC50, 1 mM ATP

Compound	Microsome stability (human); in vitro T1/2 [5]	IC50 [2, 9]	IC50 [3, 10]	Microsome stability (mouse); in vitro T1/2 [4]	MDCK permeability (MDR1-MDCK); Mean; Papp Ratio (B − A/A − B) (efflux ratio) [6]	MDCK permeability (MDR1-MDCK); Mean; Papp (A − B) [6]	MDCK permeability (MDR1-MDCK); Mean; Papp (B − A) [6]	other results
N#Cc1ccc2[nH]c(O)c(-c3ccc(CN4CCOCC4)cn3)c2c1 [AZ1080, AZD1080, reference compound]	–	–	–	–	–	–	–	IC50 ([1]; Homo sapiens, SH-SY5Y cells, 6 hours): 3000 nM
CC[C@@]1(c2ccccc2)C2=C(CC(C)(C)CC2=O)Nc2[nH]ncc21 [BRD0705, reference compound]	–	–	–	–	–	–	–	window between potency on tau phosphorylation by GSK3α and concentrations affecting β-catenin stabilization ([1]; HEK-huTau GSK3α vs SH-SY5Y β-catenin): > 5 fold; toxicity of compound in HEK-huTau assay (doses) (human GSK3β): > 30 µM
Cc1[nH]nc2c1C1(CN(S(=O)(=O)CC3CC3)C1)C1=C(CC(C)(C)CC1=O)N2 [Compound 107828]	–	–	–	–	–	–	–	IC50 [2, 7]: 100 to 1000 nM; IC50 [3, 8]: ≤ 100 nM; half-life at 1 μM [4]: 6.49 min
CC(C)(C)Cc1[nH]nc2c1C1(CN(S(=O)(=O)CC3CC3)C1)C1=C(CC3(CCC3)CC1=O)N2 [Compound 107829]	8.877 min	100 to 1000 nM	1000 to 5000 nM	2.084 min	–	–	–	–
CC(C)(C)Cc1[nH]nc2c1C(C)(c1cccc(S(=O)(=O)CC3CC3)c1)C1=C(CC(C)(C)NC1=O)N2 (centres unmarked) [Compound 108005]	–	100 to 1000 nM	100 to 1000 nM	0.69 min	–	–	–	–
COc1cncc(F)c1-c1cccc([C@]2(C)C3=C(CC(C)(C)CC3=O)Nc3n[nH]c(CC(C)(C)C)c32)c1 [Compound 108954]	–	–	–	–	–	–	–	IC50 [2, 7]: 100 to 1000 nM; IC50 [3, 8]: 1000 to 5000 nM; half-life at 1 μM [4]: 8.59 min
CC1(C)CC(=O)C2=C(C1)Nc1n[nH]c(C3CC3)c1C21CN(S(=O)(=O)CC2CC2)C1 [Compound 109152]	–	–	–	–	–	–	–	IC50 [2, 7]: 100 to 1000 nM; IC50 [3, 8]: 100 to 1000 nM; half-life at 1 μM [4]: 0.97 min
CC(C)(C)Cc1[nH]nc2c1C(C)(c1cccc(S(C)(=O)=O)c1)C1=C(CC(C)(C)CC1=O)N2 (centres unmarked) [Compound 114687]	12.3 min	≤ 100 nM	100 to 1000 nM	6.4 min	–	–	–	–
CN1CC2(C3=C(CC(C)(C)CC3=O)Nc3n[nH]c(C4CC(F)(F)C4)c32)c2ccccc21 (centres unmarked) [Compound 119048]	1.4 min	100 to 1000 nM	1000 to 5000 nM	0.5 min	42.3	1.65 10^−6 cm/s	70 10^−6 cm/s	–
CC(C)(C)Cc1[nH]nc2c1C(C)(c1cc(S(C)(=O)=O)ccc1F)C1=C(CC(C)(C)CC1=O)N2 (centres unmarked) [Compound 125976]	26.2 min	100 to 1000 nM	1000 to 5000 nM	36 min	301	0.2 10^−6 cm/s	61.2 10^−6 cm/s	–
CN1CC2(C3=C(CC(C)(C)CC3=O)Nc3n[nH]c(CC(C)(C)C)c32)c2ccccc21 (centres unmarked) [Compound 125978]	0.6 min	100 to 1000 nM	1000 to 5000 nM	0.6 min	7.49	10.8 10^−6 cm/s	81.2 10^−6 cm/s	–
CC(C)(C)Cc1[nH]nc2c1C(C)(c1cccc(S(=O)(=O)C(F)(F)F)c1)C1=C(CC(C)(C)CC1=O)N2 (centres unmarked) [Compound 126395]	–	100 to 1000 nM	1000 to 5000 nM	–	8.9	6.48 10^−6 cm/s	57.6 10^−6 cm/s	–
Cc1ccc(S(C)(=O)=O)cc1C1(C)C2=C(CC(C)(C)CC2=O)Nc2n[nH]c(CC(C)(C)C)c21 (centres unmarked) [Compound 126397]	104.9 min	≤ 100 nM	1000 to 5000 nM	>145 min	–	–	–	–
CC(C)(C)Cc1[nH]nc2c1C(C)(c1cccc(N3CCOCC3)c1)C1=C(CC(C)(C)CC1=O)N2 (centres unmarked) [Compound 126400]	–	100 to 1000 nM	1000 to 5000 nM	–	119	0.41 10^−6 cm/s	48.9 10^−6 cm/s	–
CC1(C)CC(=O)C2=C(C1)Nc1n[nH]c(C3CC(F)(F)C3)c1C21COc2ccccc21 (centres unmarked) [Compound 127430]	>145 min	100 to 1000 nM	1000 to 5000 nM	74.5 min	–	–	–	–
